Results as given in PMC11597353, “Synthesis of Novel Gefitinib-Conjugated 1,2,3-Triazole Derivatives and Their Effect of Inducing DNA Damage and Apoptosis in Tumor Cells” (Molecules, 2024).

Assays:
[1] = tested on: HepG2 cells; experiment: Colony formation assay; type: cell-based, human; conditions: 7 days
Protocol: A colony formation assay is used to assess the ability of adherent cells to proliferate and form cell colonies on a plate, making it one of the key methods for evaluating cell proliferation. We also employed the colony formation assay to further confirm that compounds 11m and 11t can inhibit liver cancer cell proliferation (as shown in Figure 5). HepG2 cells were treated with low, medium, and high concentrations (2, 4, and 8 μmol/L) of the compounds for 7 days, followed by counting the number of cell colonies and analyzing the proliferation inhibition rate.
HepG2 cells were seeded in 6-well plates at a density of 500 cells per well and incubated at 37 °C for 24 h, followed by treatment with 11m or 11t (2, 4, and 8 μM) for 24 h. The medium was then replaced with fresh culture medium, and after 7 days, the culture medium was removed and washed with PBS. Cells were fixed with 4% paraformaldehyde at room temperature for 20 min, stained with 0.1% crystal violet staining solution at room temperature for 20 min, and excess staining solution was washed off with distilled water. The plates were dried at 37 °C, photographed, and the number of colonies was counted using ImageJ.

[2] = tested on: HepG2 cells; experiment: DAPI staining for apoptotic morphology; type: cell-based, human; conditions: HepG2, 2, 4, 8 μM, 48 h
Protocol: To confirm the apoptosis-inducing activity of 11m and 11t in liver cancer cells, HepG2 cells were treated with different concentrations of compounds 11m and 11t for 48 h, followed by DAPI staining.
HepG2 cells were seeded in 48-well plates and incubated for 24 h, then treated with different concentrations of 11m and 11t (2, 4, and 8 μM) for 48 h. After removing the original culture medium, the cells were washed with PBS and fixed with 4% paraformaldehyde at room temperature for 20 min. After washing with PBS, the cells were stained with DAPI (10 μg/mL) in the dark at room temperature for 5 min. After washing with PBS, apoptotic morphological changes were observed using a fluorescence microscope.

[3] = tested on: HepG2 cells; experiment: CCK8 cell viability / IC50 assay on HepG2 cells; conditions: for % Cell Viability (10 μM): 72 h; for IC50: read-out: HepG2, IC50 (μM) 72 h
[4] = tested on: HepG2 cells; experiment: Scratch wound healing assay; type: cell-based, human
From the text: (§1) To investigate the effect of the compounds on the migration of wild-type liver cancer cells, we conducted wound healing and Transwell assays to assess changes in the migration ability of HepG2 cells after treatment with compounds 11m and 11t. […] The Transwell migration assay, another important method for evaluating cell migration, involves seeding tumor cells in a chamber and assessing their migration ability by counting the number of cells that pass through the membrane. […] These findings indicate that compounds 11m and 11t can inhibit the migration ability of liver cancer cells in a concentration-dependent manner.
HepG2 cells were seeded in 24-well plates, and when the cell density reached 95%, a vertical scratch was made along the edge of the plate cover using a yellow pipette tip. After washing with PBS, images of the scratches were taken at 0 h under a microscope, and each well was treated with 11m or 11t (0, 2, 4, and 8 μM) and incubated in a cell culture incubator. Images were taken at 12, 24, and 48 h after the scratch was made.

[5] = tested on: HepG2 cells; experiment: Transwell migration assay; type: cell-based, human; conditions: HepG2, 2, 4, 8 μM, 48 h, vs control, p < 0.01
From the text: as §1
HepG2 cells were starved in serum-free Gibco DMEM for 24 h, then seeded in the upper chamber of a 24-well Transwell plate (Corning Inc., Corning, NY, USA) at a density of 5 × 10^5 cells/mL. 11m or 11t was added to achieve final concentrations of 0, 2, 4, and 8 μM. The upper chamber’s total volume was 200 μL, while the lower chamber contained 600 μL of Gibco DMEM with 20% serum. After 48 h of incubation, the culture medium was washed off with PBS, and the cells were fixed with 4% paraformaldehyde at room temperature for 20 min. […] Images were taken under an inverted microscope, and quantification was performed using ImageJ.

[6] = tested on: Bcl-2/Caspase-3/PARP signaling pathway; experiment: Western blot of apoptosis-related proteins in HepG2 cells; type: cell-based, human; conditions: 48 h; for expression level of Bcl-2 / expression level of Caspase-3 / expression level of Caspase-9 / expression level of PARP / level of cleaved Caspase-3 / level of cleaved PARP: HepG2, 2, 4, 8 μM; for expression of Bax: HepG2, with increasing drug concentration
From the text: We conducted an in-depth study on the mechanisms of apoptosis induced by compounds 11m and 11t (Figure 9). The Bcl-2 protein family is located upstream in the apoptosis signaling pathway, with Bcl-2 exerting anti-apoptotic and pro-proliferative effects by inhibiting the release of cytochrome C (cyt-c) from the mitochondria. Previous studies have reported that many anticancer drugs exert pro-apoptotic effects by downregulating Bcl-2. When apoptosis occurs, the expression level of Bcl-2 is suppressed, cyt-c is released, and it binds to apoptotic protease activating factor (Apaf-1) to form the apoptosome, triggering a cascade reaction involving the Caspase family proteins. The apoptosome first promotes the activation of Caspase-9, which in turn activates Caspase-3, forming cleaved Caspase-3. Cleaved Caspase-3 further activates downstream PARP proteins, ultimately promoting apoptosis. […] After treating HepG2 cells with different concentrations of the compounds for 48 h, we extracted cellular proteins and used Western blotting to detect changes in the expression of apoptosis-related proteins. […] The expression levels of Caspase-3, Caspase-9, and PARP decreased with increasing drug concentration, whereas the levels of cleaved Caspase-3 and cleaved PARP increased.
HepG2 cells were seeded in 6-well plates and incubated for 24 h. They were then treated with 11m or 11t at concentrations of 2, 4, or 8 μM for 48 h. The cells were harvested, and cytoplasmic and nuclear proteins were extracted using cell lysis buffer from Beyotime Biotechnology (Shanghai, China). Protein supernatants were mixed with loading buffer, denatured at 100 °C for 10 min, and quantified using BCA. Equal amounts of protein, along with molecular weight markers, were loaded onto a 12% SDS-PAGE gel and separated by electrophoresis for 2 h. The separated proteins were transferred onto NC membranes, and nonspecific binding sites on the membranes were blocked with 5% skim milk. Membranes were incubated with primary antibodies overnight at 4 °C, followed by incubation with HRP-conjugated secondary antibodies (goat anti-rabbit or goat anti-mouse IgG) at room temperature for 2 h. Protein bands were visualized on NC membranes using ECL ultra-sensitive chemiluminescence solution and a Bio-Rad gel imaging and analysis system.

[7] = tested on: normal liver cells (L02); experiment: CCK8 toxicity against normal liver cells (L02); conditions: Figure 3

| Compound | colony formation in HepG2 cells ([1]; 4 μM) | colony formation in HepG2 cells ([1]; 8 μM) | apoptotic morphological changes (DAPI staining) [2] | % Cell Viability (10 μM) [3] | IC50 [3] | wound-healing rate ([4]; HepG2, 2 μM, 12 h) | wound-healing rate ([4]; HepG2, 2 μM, 24 h) | wound-healing rate ([4]; HepG2, 2 μM, 48 h) | wound-healing rate ([4]; HepG2, 4 μM, 12 h) | wound-healing rate ([4]; HepG2, 4 μM, 24 h) | wound-healing rate ([4]; HepG2, 4 μM, 48 h) | wound-healing rate ([4]; HepG2, 8 μM, 12 h) | wound-healing rate ([4]; HepG2, 8 μM, 24 h) | wound-healing rate ([4]; HepG2, 8 μM, 48 h) | number of cells that migrated through the microporous membrane [5] | expression level of Bcl-2 [6] | expression level of Caspase-3 [6] | expression level of Caspase-9 [6] | expression level of PARP [6] | level of cleaved Caspase-3 [6] | other results |
| --- | --- | --- | --- | --- | --- | --- | --- | --- | --- | --- | --- | --- | --- | --- | --- | --- | --- | --- | --- | --- | --- |
| COc1cc2ncnc(Nc3cccc(-c4cn(Cc5ccc(I)cc5)nn4)c3)c2cc1OCCCN1CCOCC1 [Compound 11m, N-(3-(1-(4-iodobenzyl)-1H-1,2,3-triazol-4-yl)phenyl)-7-methoxy-6-(3-morpholinopropoxy)quinazolin-4-amine] | began to noticeably inhibit colony formation | almost completely suppressed | typical apoptotic characteristics | 5.86 ± 0.04% | 3.08 ± 0.37 µM | 14.32% | 20.33% | 41.13% | 13.89% | 20.60% | 36.35% | 8.96% | 16.39% | 18.48% | significantly reduced | decreased | decreased | decreased | decreased | increased | level of cleaved PARP [6]: increased; expression of Bax [6]: increased; toxicity against normal liver cells (L02) [7]: favorable safety profile |
| COc1cc2ncnc(Nc3cccc(-c4cn(Cc5cccc(I)c5)nn4)c3)c2cc1OCCCN1CCOCC1 [Compound 11t, N-(3-(1-(3-iodobenzyl)-1H-1,2,3-triazol-4-yl)phenyl)-7-methoxy-6-(3-morpholinopropoxy)quinazolin-4-amine] | began to noticeably inhibit colony formation | almost completely suppressed | typical apoptotic characteristics | 5.22 ± 0.36% | 3.6 ± 0.53 µM | 11.03% | 16.02% | 35.36% | 14.18% | 25.67% | 33.66% | 9.87% | 13.26% | 19.54% | significantly reduced | decreased | decreased | decreased | decreased | increased | level of cleaved PARP [6]: increased; expression of Bax [6]: increased; toxicity against normal liver cells (L02) [7]: favorable safety profile |
